Results: US8361496B2, “Phospholipid gel compositions for drug delivery and methods of treating conditions using same” (Idexx Laboratories Inc., priority 2004, dated 2013)

Test: Clinical study 5.16: serum concentration of tilmicosin after oral administration
Type: in vivo
Conditions: oral 20 mg/kg, gelatin capsule with the gel of Example 5.14
Description: Tilmicosin was orally administered to a dog using the pharmaceutical composition of Example 5.14. A sufficient amount of the gel of example 5.14 was placed in a gelatin capsule to provide a dose of 20 mg/kg to the dog. The dog was then orally administered the gelatin capsule containing the tilmicosin pharmaceutical composition of Example 5.14. Blood was then withdrawn from the dog at various time intervals and the serum concentration of tlmicosin determined by the following procedure: (i) A C-18 cartridge (commercially available from Waters Corp. of Milford, Mass.) was connected to a 20 mL syringe and to a single diaphragm vacuum pump (commercially available from Gast Manufacturing Inc. of Benton Harbor, Mich.). […]

## CC[C@H]1OC(=O)C[C@@H](O)[C@H](C)[C@@H](O[C@@H]2O[C@H](C)[C@@H](O)[C@H](N(C)C)[C@H]2O)[C@@H](CCN2C[C@H](C)C[C@H](C)C2)C[C@@H](C)C(=O)/C=C/C(C)=C/[C@@H]1CO[C@@H]1O[C@H](C)[C@@H](O)[C@@H](OC)[C@H]1OC [Tilmicosin]
  time for which tilmicosin is provided in the blood of the dog: at least 48 h
